PubChem BioAssay AID1963867 (Molecular Pharmacology Branch, DTP, NCI, 2024)

System: KRAS-mutant PDC tumor spheroid with HUVEC/MSC, viability
Assay: Anticancer human tumor 327498-153-R-J2-PDC patient-derived uterine carcinosarcoma cell line growth inhibition [KRAS2]
Conditions: for IC50: curve of first compound; for viability, T/C: stronger effect = lower value
In short: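 Combination screen of spheroid viability in tumor-cell co-cultures with endothelial (HUVEC) and mesenchymal stem cell stroma. Each agent was tested in half-log dilutions, topping at clinical Cmax or at 10 microM without a known Cmax.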

[1] = second compound 0.1 µM, first compound 0.0316 µM
[2] = second compound 0.1 µM, first compound 0.1 µM
[3] = second compound 0.1 µM, first compound 0.316 µM
[4] = second compound 0.1 µM, first compound 1 µM
[5] = second compound 0.1 µM, first compound 3.16 µM
[6] = second compound 0.1 µM, first compound 10 µM
[7] = second compound 0.316 µM, first compound 0.0316 µM
[8] = second compound 0.316 µM, first compound 0.1 µM
[9] = second compound 0.316 µM, first compound 0.316 µM
[10] = second compound 0.316 µM, first compound 1 µM
[11] = second compound 0.316 µM, first compound 3.16 µM
[12] = second compound 0.316 µM, first compound 10 µM
[13] = second compound 1 µM, first compound 0.0316 µM
[14] = second compound 1 µM, first compound 0.1 µM
[15] = second compound 1 µM, first compound 0.316 µM
[16] = second compound 1 µM, first compound 1 µM
[17] = second compound 1 µM, first compound 3.16 µM
[18] = second compound 1 µM, first compound 10 µM
[19] = second compound 3.16 µM, first compound 0.0316 µM
[20] = second compound 3.16 µM, first compound 0.1 µM
[21] = second compound 3.16 µM, first compound 0.316 µM
[22] = second compound 3.16 µM, first compound 1 µM
[23] = second compound 3.16 µM, first compound 3.16 µM
[24] = second compound 3.16 µM, first compound 10 µM
[25] = second compound 10 µM, first compound 0.0316 µM
[26] = second compound 10 µM, first compound 0.1 µM
[27] = second compound 10 µM, first compound 0.316 µM
[28] = second compound 10 µM, first compound 1 µM
[29] = second compound 10 µM, first compound 3.16 µM
[30] = second compound 10 µM, first compound 10 µM
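Further: spheroids exposed to agents for seven days before reading.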
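Wherever viability, T/C is given: 100% = DMSO vehicle wells so lower means fewer viable cells.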

Row | Compound | IC50 (second compound 0.1 µM) | IC50 (second compound 0.316 µM) | IC50 (second compound 1 µM) | IC50 (second compound 3.16 µM) | IC50 (second compound 10 µM) | viability, T/C [1] | viability, T/C [2] | viability, T/C [3] | viability, T/C [4] | viability, T/C [5] | viability, T/C [6] | viability, T/C [7] | viability, T/C [8] | viability, T/C [9] | viability, T/C [13] | viability, T/C [14] | viability, T/C [19] | viability, T/C [20] | viability, T/C [25] | viability, T/C [26] | also measured
1 | CC(C)NCC(C(=O)N1CCN(c2ncnc3c2C(C)CC3O)CC1)c1ccc(Cl)cc1 (stereo not given) + CNCc1ccccc1-c1csc(C(C)Nc2nc(C)nc3cc(OC)c(OC)cc23)c1 | 216 nM | 147 nM | 115 nM | < 31.6 nM | < 31.6 nM | 77.9% | 55.6% | 45% | 34.7% | 26.4% | 15% | 63.6% | 55.1% | 40.9% | 66.3% | 52.5% | 0.12% | 0.09% | 0.23% | 0.44% | viability, T/C [10]: 27.5%; viability, T/C [11]: 22.1%; viability, T/C [12]: 14.6%; viability, T/C [15]: 36.1%; viability, T/C [16]: 24.6%; viability, T/C [17]: 18.2%; viability, T/C [18]: 11.5%; viability, T/C [21]: 0.09%; viability, T/C [22]: 0.07%; viability, T/C [23]: 0.3%; viability, T/C [24]: 0.16%; viability, T/C [27]: 0.16%; viability, T/C [28]: 0.16%; viability, T/C [29]: 0.16%; viability, T/C [30]: 0.23%
2 | CC(C)n1nc(-c2ccc3oc(N)nc3c2)c2c(N)ncnc21 + CNCc1ccccc1-c1csc(C(C)Nc2nc(C)nc3cc(OC)c(OC)cc23)c1 | 4.87 nM | 4.21 nM | 2.3 nM | < 0.316 nM | < 0.316 nM | 13.8% | 7.32% |  |  |  |  | 10.3% | 6.25% |  | 7.89% | 4.25% | 0.04% | 1.36% | 0.24% | 0.39% | viability, T/C (second compound 0.1 µM, first compound 0.000316 µM): 87.6%; viability, T/C (second compound 0.1 µM, first compound 0.001 µM): 80.3%; viability, T/C (second compound 0.1 µM, first compound 0.00316 µM): 59.9%; viability, T/C (second compound 0.1 µM, first compound 0.01 µM): 33.4%; viability, T/C (second compound 0.316 µM, first compound 0.000316 µM): 76.8%; viability, T/C (second compound 0.316 µM, first compound 0.001 µM): 73.2%; viability, T/C (second compound 0.316 µM, first compound 0.00316 µM): 56%; viability, T/C (second compound 0.316 µM, first compound 0.01 µM): 30.4%; viability, T/C (second compound 1 µM, first compound 0.000316 µM): 68.2%; viability, T/C (second compound 1 µM, first compound 0.001 µM): 63.9%; viability, T/C (second compound 1 µM, first compound 0.00316 µM): 43.4%; viability, T/C (second compound 1 µM, first compound 0.01 µM): 25.6%; viability, T/C (second compound 3.16 µM, first compound 0.000316 µM): 20.1%; viability, T/C (second compound 3.16 µM, first compound 0.001 µM): 0.14%; viability, T/C (second compound 3.16 µM, first compound 0.00316 µM): 1.09%; viability, T/C (second compound 3.16 µM, first compound 0.01 µM): 0.2%; viability, T/C (second compound 10 µM, first compound 0.000316 µM): 0.49%; viability, T/C (second compound 10 µM, first compound 0.001 µM): 0.14%; viability, T/C (second compound 10 µM, first compound 0.00316 µM): 0.93%; viability, T/C (second compound 10 µM, first compound 0.01 µM): 0.51%
3 | CC1(C)CCC(CN2CCN(c3ccc(C(=O)NS(=O)(=O)c4ccc(NCC5CCOCC5)c([N+](=O)[O-])c4)c(Oc4cnc5[nH]ccc5c4)c3)CC2)=C(c2ccc(Cl)cc2)C1 + CNCc1ccccc1-c1csc(C(C)Nc2nc(C)nc3cc(OC)c(OC)cc23)c1 | 3280 nM | 2710 nM | 1930 nM | < 31.6 nM | < 31.6 nM | 90.5% | 78.1% | 79.4% | 77.5% | 50.8% | 13.7% | 84.3% | 79.5% | 73.2% | 72.5% | 72.8% | 1.08% | 0.13% | 0.41% | 0.15% | viability, T/C [10]: 76.4%; viability, T/C [11]: 46%; viability, T/C [12]: 9.74%; viability, T/C [15]: 71.3%; viability, T/C [16]: 72.3%; viability, T/C [17]: 33.2%; viability, T/C [18]: 1.07%; viability, T/C [21]: 0.22%; viability, T/C [22]: 0.13%; viability, T/C [23]: 0.09%; viability, T/C [24]: 0.25%; viability, T/C [27]: 0.26%; viability, T/C [28]: 0.14%; viability, T/C [29]: 0.16%; viability, T/C [30]: 0.23%
